In test [1] the test system is platelets in platelet rich plasma (PRP). As to the kind of experiment: Microplate clot retraction method (thrombin-activated platelet rich plasma, O.D. 350 nm kinetics). To be noted: for clot densification phase (phase 3) of the reaction kinetic curve: at the highest levels of inhibition. The test is classed as cell-based, human. As for the experimental part:
Whole blood was collected in acid citrate dextrose tubes (ACD-A; BD Vacutainer, Franklin Lakes NJ) from healthy volunteers in accordance with a U.S. Army Research and Development Command approved protocol (USAISR L-20-003). Whole blood was centrifuged at 200×g for 10 minutes and platelet rich plasma (PRP) was obtained from the upper layer. Platelet poor plasma (PPP) was recovered from the remaining volume of the ACD-A tube after centrifugation at 3,000 times gravity (×g) for 10 minutes. To obtain apheresis platelets, the Trima Accel 7 (Terumo, Lakewood, CO) system was used for collection in either autologous plasma or Isoplate (65% Isoplate, 35% plasma). Platelet concentrations were determined on an Advia® 2120i (Siemens, Malvern, PA) and adjusted to 250,000 platelets/μL with autologous PPP, unless indicated otherwise.
Individual wells of a 96-well polystyrene microplate were coated with 150 μL of anti-adherence rinse solution (Stem Cell Technologies, Vancouver, Canada) and the microplate was centrifuged for 10 minutes at 1.300×g. The anti-adherence coating solution was aspirated and the coated wells were washed once with phosphate buffered saline. After washing, one side of each coated well was scored with an 18 Gauge (Ga) needle. Five μL of 30 U/ml thrombin (Haematologic Technologies, East Junction, VT) were added to each coated and scored well to initiate platelet aggregation, clot formation, and subsequent clot retraction.
PRP was supplemented with 6 mM CaCl2 (Sigma, St. Louis, MO) before aliquoting 180 μL to wells that were adjacent to the thrombin-containing (reaction) wells. The transfer of PRP to adjacent (staging) wells allowed for simultaneous transfer of multiple samples to the reaction wells using a multichannel pipette. The microplate was then loaded into a Synergy™ Neo2 microplate reader, and 145 μL of re-calcified PRP were transferred from the staging well to the reaction well. The plate scan was immediately started after addition of PRP. The plate scan protocol consisted of: temperature=37° C., assay duration=30 minutes, read interval=5 seconds, kinetic absorbance wavelength=350 nm, well scan absorbance wavelength=350 nm. After the plate scan protocol was completed, the plate was discarded and the data were exported as text files.
When indicated, the concentrations of platelets, CaCl2, or thrombin were varied to identify the optimal assay conditions for clot retraction. Additionally, PRP was pre-treated with increasing concentrations of inhibitors to platelet integrin αIIbβ3 (Eptifibatide, Sigma, St. Louis, MO), platelet-fibrin interaction (RGDS, Cayman Chemical, Ann Arbor, MI), and Src-family kinase (PP2, Sigma). Vehicle controls were the solvent used for the respective compound. Each treatment was performed in at least duplicate technical replicates.
Text files containing the optical density (O.D.) values were imported into R v4.0.5. Parameters of Rate of Clot Formation, Rate of Clot Retraction, Maximum O.D., Retraction Coefficient, Time to Maximum O.D., and Retraction Time were derived for each sample. Algorithms to extract parameters are described in Table 2, below.
Briefly, for Rates of Clot Formation and Retraction, a sliding window procedure was used to fit a linear model to a subset of 20 consecutive data points (k=20). The slope coefficient was extracted from each linear model and stored in an array. The Rates of Clot Formation and Retraction were defined as the maximum and minimum values, respectively, in the array. […] The data points represent donors and horizontal bars depicts medians. The Maximum and Minimum O.D. values were defined as the maximum and minimum readings, respectively. The Retraction Coefficient was defined as the difference between the Maximum and Minimum O.D. values, divided by the Maximum O.D. value. The Time to Maximum O.D. was defined as the time-point in which the Maximum O.D. value was observed. […]

For test [2], the system named is platelet rich plasma (PRP). Put plainly: Clot retraction assay in 2% Tween coated wells (optimization of assay agonist). The test is classed as cell-based, human. The settings on record: 0.5, 1, 2 and 4 NIH units of thrombin, n=4. As for the experimental part: Bottom halves of the individual wells in a 96-well plate were coated with 2% Tween and left in a vertical position inside a modified chamber for 90 minutes at room temperature. The coating solutions were then aspirated and allowed to air dry under the hood for 15 minutes. Whole blood collected in ACD tubes from healthy volunteers was subjected to centrifugation at 200×g for 10 minutes to obtain platelet rich plasma (PRP), followed by a second centrifugation at 3000×g for 10 minutes to obtain platelet poor plasma (PPP). When needed, platelet concentrations in the PRP were adjusted to desired levels using PPP. PRP samples (145 μL) were recalcified with 20 mM CaCl2 were then transferred into wells containing five μL of two NIH U/mLs of Thrombin. Further, the changes in absorbance during clot gelation and retraction were tracked at 350 nm using a microplate spectrophotometer for 90 minutes at 37° C.
To evaluate the appropriate thrombin concentration for the best outcome in the assay, we tested at 0.5, 1, 2 and 4 NIH units of thrombin (n=4). Once coagulation was initiated with thrombin, the clotting kinetics were characterized by a very short lag phase of initiation, a log phase of fibrin polymerization, a fibrin densification phase of platelet mediated fibrin remodeling, and a final rapid CR phase of declining absorbance. […]

We go through six compounds from patent US20230358769A1, “CLOT […] FOR QUALITY MONITORING OF PLATELET PRODUCTS” (THE GOVERNMENT OF THE UNITED STATES AS REPRESENTED BY THE …, priority 2022, published 2023).

Where a SMILES comes first, the peptide text is derived from it. Bridges are numbered along the chain shown (N, C = ends). [ ]: non-standard residue; d: D form. hArg = N=C(N)NCCCC[C@H](N)C(=O)O; Mpa = O=C(O)CCS

As to `[Ca+2].[Cl-].[Cl-]` [CaCl2, Calcium chloride], the “clot formation and clot retraction at the highest CaCl2 levels” value in test [1] (CaCl2 concentration varied, n=5, highest levels) was “clot formation, but failure in clot retraction”. Further, the “differences in parameters across CaCl2 concentrations” value in test [1] (range of 0 to 6 mM CaCl2) is “No differences”. Take `N=C(N)NCCCC[C@@H]1NC(=O)CCSSC[C@@H](C(N)=O)NC(=O)[C@@H]2CCCN2C(=O)[C@H](Cc2c[nH]c3ccccc23)NC(=O)[C@H](CC(=O)O)NC(=O)CNC1=O` [Eptifibatide] ([Mpa][hArg]GDWPC-NH2; disulfide 1-7): the “clot densification phase (phase 3) of the reaction kinetic curve” value in test [1] is on record as “absent or greatly diminished”. On the same count and under the same terms, for `CC(C)(C)n1nc(-c2ccc(Cl)cc2)c2c(N)ncnc21` [PP2] the value was “absent or greatly diminished”. On to `C=C1[C@@H](C)[C@H]2[C@H](Cc3ccccc3)NC(=O)[C@]23[C@H](OC(C)=O)/C=C/[C@@](C)(O)C(=O)[C@@H](C)C/C=C/[C@H]3[C@@H]1O` [cytochalasin D], for which the “all parameters except Rate of Clot Formation and Maximum O.D., differences among treatment levels” value in test [1] (cytochalasin D pretreatment, n=5, p<0.001) is listed as “significant differences”. For the same compound, the “dose dependence of the differences among conditions” value in test [1] (cytochalasin D pretreatment, greatest departure from vehicle at highest concentrations) is “followed the dosing level”. Regarding “Arg-Gly-Asp-Ser (RGDS; printed: Arg-Gly-Asp-Ser)”, the “clot densification phase (phase 3) of the reaction kinetic curve” value in test [1] is reported as “absent or greatly diminished”.

On to thrombin, for which the “CR at 60 minutes after clot initiation” value in test [2] amounted to 100%. Also, the “effect of thrombin concentration on the method's results” value in test [1] (thrombin concentration varied, n=5) is “significantly affected the method's results in a concentration dependent manner”.
